How the values were obtained:
Experiment in all cases: relative viability (nuclei count vs DMSO), 5 days (fraction); higher = more cells survive
Dovitinib + Tozasertib = compound: CN1CCN(c2ccc3nc(-c4c(N)c5c(F)cccc5[nH]c4=O)[nH]c3c2)CC1 [Dovitinib] + Cc1cc(Nc2cc(N3CCN(C)CC3)nc(Sc3ccc(NC(=O)C4CC4)cc3)n2)n[nH]1 [Tozasertib] (partner 0.1 µM)
Summary of the method: (§1)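 After 5 days of treatment, lung cancer cells in 1536-well plates were fixed and stained in a single step (final 0.05% Triton X-100, 1% formaldehyde, 1 ug/ml Hoechst) and their nuclei counted on 4× images. Treatment had been applied by pin tool the day after seeding as one drug alone or as a fixed anchor-drug dose with five library-drug doses (not always all listed) in √10 steps. Relative viability is the nuclei count of treated wells divided by that of vehicle wells, and values are medians of duplicate plates.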

Dovitinib + Foretinib = compound: CN1CCN(c2ccc3nc(-c4c(N)c5c(F)cccc5[nH]c4=O)[nH]c3c2)CC1 [Dovitinib] + COc1cc2c(Oc3ccc(NC(=O)C4(C(=O)Nc5ccc(F)cc5)CC4)cc3F)ccnc2cc1OCCCN1CCOCC1 [Foretinib] (partner 0.25 µM)
Summary of the method: as §1

Dovitinib + AZD7762 = compound: CN1CCN(c2ccc3nc(-c4c(N)c5c(F)cccc5[nH]c4=O)[nH]c3c2)CC1 [Dovitinib] + NC(=O)Nc1cc(-c2cccc(F)c2)sc1C(=O)N[C@H]1CCCNC1 [AZD7762] (partner 0.2 µM)
Summary of the method: as §1

Dovitinib + Luminespib = compound: CN1CCN(c2ccc3nc(-c4c(N)c5c(F)cccc5[nH]c4=O)[nH]c3c2)CC1 [Dovitinib] + CCNC(=O)c1noc(-c2cc(C(C)C)c(O)cc2O)c1-c1ccc(CN2CCOCC2)cc1 [Luminespib] (partner 0.01 µM)
Summary of the method: as §1

Cell Line	relative viability (Dovitinib + Tozasertib; first compound 0.02 µM)	relative viability (Dovitinib + Tozasertib; first compound 0.06325 µM)	relative viability (Dovitinib + Tozasertib; first compound 0.2 µM)	relative viability (Dovitinib + Tozasertib; first compound 0.6325 µM)	relative viability (Dovitinib + Tozasertib; first compound 2 µM)	relative viability (Dovitinib + Foretinib; first compound 0.02 µM)	relative viability (Dovitinib + Foretinib; first compound 0.06325 µM)	relative viability (Dovitinib + Foretinib; first compound 0.2 µM)	relative viability (Dovitinib + Foretinib; first compound 0.6325 µM)	relative viability (Dovitinib + Foretinib; first compound 2 µM)	relative viability (Dovitinib + AZD7762; first compound 0.02 µM)	relative viability (Dovitinib + AZD7762; first compound 0.06325 µM)	relative viability (Dovitinib + AZD7762; first compound 0.2 µM)	relative viability (Dovitinib + AZD7762; first compound 0.6325 µM)	relative viability (Dovitinib + AZD7762; first compound 2 µM)	relative viability (Dovitinib + Luminespib; first compound 0.02 µM)	relative viability (Dovitinib + Luminespib; first compound 0.06325 µM)	relative viability (Dovitinib + Luminespib; first compound 0.2 µM)	relative viability (Dovitinib + Luminespib; first compound 0.6325 µM)	relative viability (Dovitinib + Luminespib; first compound 2 µM)
NCI-H1793	0.32	0.399	0.362	0.266	0.343	0.775	0.532	0.684	0.604	0.745	0.453	0.316	0.505	0.306	0.53	0.199	0.164	0.165	0.211	0.167
NCI-H1915	0.435	0.445	0.46	0.451	0.453	1.07	1.08	1.1	1.07	1.06	0.609	0.708	0.705	0.614	0.693	0.717	0.897	0.884	0.775	0.781
NCI-H1944	0.235	0.258	0.225	0.272	0.255	0.833	0.906	0.864	0.903	0.86	0.564	0.788	0.531	0.523	0.475	0.643	0.773	0.757	0.704	0.715
NCI-H1975	0.72	0.754	0.763	0.689	0.685	1.01	0.962	0.927	0.989	0.975	0.708	0.577	0.728	0.738	0.653	0.991	0.19	0.422	0.146	0.217
NCI-H1993	0.58	0.546	0.601	0.636	0.582	0.759	0.714	0.742	0.771	0.771	1.01	0.724	0.887	0.985	0.849	0.873	0.716	0.816	0.728	0.346
NCI-H2085	0.83	0.871	0.851	0.824	0.84	1.01	1.16	1.01	0.961	1.01	1.07	1.13	1.04	0.998	1.04	0.41	0.457	0.485	0.495	0.484
NCI-H2087	0.196	0.271	0.308	0.209	0.286	1.19	1.15	1.14	1.05	1.16	1.35	1.38	1.27	1.29	1.31	0.148	0.155	0.184	0.212	0.137
NCI-H2126	0.833	0.807	0.951	0.794	0.833	1.17		1.3	1.14	1.15	0.982	1.04	1.03	1.04	1	0.937	0.864	1.09	0.877	0.83

— the supplement of paper PMC10307832
